Results reported in patent US6403082B1, “Bacteriocins, transport and vector system and method of use thereof” (priority 1996, dated 2002).

Tests used:
Assay in all cases: Spot test of partially purified bacteriocins on strains grown on agar
[1] = tested on: Staphylococcus
[2] = tested on: Clostridia spores; type: cell-based, Clostridium
[3] = tested on: Leuconostoc
[4] = tested on: Lactobacillus
[5] = tested on: Lactococcus
[6] = tested on: Carnobacteria
[7] = tested on: Listeria
[8] = tested on: Streptococcus
[9] = tested on: G negative strains; type: cell-based
[10] = tested on: Brochothrix
[11] = tested on: Bacillus spores; type: cell-based
[12] = tested on: Enterococcus
[13] = tested on: Clostridia vegetative cells; type: cell-based, Clostridium
[14] = tested on: Pediococcus
[15] = tested on: Bacillus vegetative cells; type: cell-based

Substance	Number of strains inhibited/Number of strains tested ([1]; 1AU (10 μl/spot of 100 AU/ml))	Number of strains inhibited/Number of strains tested ([1]; 8AU (10 μl/spot of 800 AU/ml))	Number of strains inhibited/Number of strains tested ([2]; 1AU (10 μl/spot of 100 AU/ml))	Number of strains inhibited/Number of strains tested ([2]; 8AU (10 μl/spot of 800 AU/ml))	Number of strains inhibited/Number of strains tested ([3]; 1AU (10 μl/spot of 100 AU/ml))	Number of strains inhibited/Number of strains tested ([3]; 8AU (10 μl/spot of 800 AU/ml))	Number of strains inhibited/Number of strains tested ([4]; 1AU (10 μl/spot of 100 AU/ml))	Number of strains inhibited/Number of strains tested ([4]; 8AU (10 μl/spot of 800 AU/ml))	Number of strains inhibited/Number of strains tested ([5]; 1AU (10 μl/spot of 100 AU/ml))	Number of strains inhibited/Number of strains tested ([5]; 8AU (10 μl/spot of 800 AU/ml))	Number of strains inhibited/Number of strains tested ([6]; 1AU (10 μl/spot of 100 AU/ml))	Number of strains inhibited/Number of strains tested ([6]; 8AU (10 μl/spot of 800 AU/ml))	Number of strains inhibited/Number of strains tested ([7]; 1AU (10 μl/spot of 100 AU/ml))	Number of strains inhibited/Number of strains tested ([7]; 8AU (10 μl/spot of 800 AU/ml))	Number of strains inhibited/Number of strains tested ([8]; 1AU (10 μl/spot of 100 AU/ml))	Number of strains inhibited/Number of strains tested ([8]; 8AU (10 μl/spot of 800 AU/ml))	Number of strains inhibited/Number of strains tested ([9]; 1AU (10 μl/spot of 100 AU/ml))	Number of strains inhibited/Number of strains tested ([9]; 8AU (10 μl/spot of 800 AU/ml))	Number of strains inhibited/Number of strains tested ([10]; 1AU (10 μl/spot of 100 AU/ml))	Number of strains inhibited/Number of strains tested ([10]; 8AU (10 μl/spot of 800 AU/ml))	further results
cbn A	0/7	1/7	0/7	0/7	1/9	1/9	0/17	1/17	0/8	0/8	0/14	0/14	4/42	21/42	0/3	0/3	0/29	0/29	0/14	0/14	Number of strains inhibited/Number of strains tested ([11]; 1AU (10 μl/spot of 100 AU/ml)): 0/5; Number of strains inhibited/Number of strains tested ([11]; 8AU (10 μl/spot of 800 AU/ml)): 0/5; Number of strains inhibited/Number of strains tested ([12]; 1AU (10 μl/spot of 100 AU/ml)): 2/14; Number of strains inhibited/Number of strains tested ([12]; 8AU (10 μl/spot of 800 AU/ml)): 2/14; Number of strains inhibited/Number of strains tested ([13]; 1AU (10 μl/spot of 100 AU/ml)): 0/8; Number of strains inhibited/Number of strains tested ([13]; 8AU (10 μl/spot of 800 AU/ml)): 0/8; Number of strains inhibited/Number of strains tested ([14]; 1AU (10 μl/spot of 100 AU/ml)): 0/3; Number of strains inhibited/Number of strains tested ([14]; 8AU (10 μl/spot of 800 AU/ml)): 0/3; Number of strains inhibited/Number of strains tested ([15]; 1AU (10 μl/spot of 100 AU/ml)): 2/5; Number of strains inhibited/Number of strains tested ([15]; 8AU (10 μl/spot of 800 AU/ml)): 2/5
Enterocin 900: broad spectrum bacteriocin of 71 amino acids (SEQ ID NO:30) produced by Enterococcus faecium 900 (MKKELLNKNEMSRIIGGKINWGNVGGSCVGGAVIGGALGGLGGAGGGCITGAIGSIWDQ; Brochocin-C peptide B;)	1/7	1/7	0/7	0/7	1/9	1/9	2/17	5/17	4/8	4/8	1/19	7/19	39/42	39/42	0/3	0/3	0/29	0/29	0/14	0/14	Number of strains inhibited/Number of strains tested ([11]; 1AU (10 μl/spot of 100 AU/ml)): 0/5; Number of strains inhibited/Number of strains tested ([11]; 8AU (10 μl/spot of 800 AU/ml)): 0/5; Number of strains inhibited/Number of strains tested ([12]; 1AU (10 μl/spot of 100 AU/ml)): 5/14; Number of strains inhibited/Number of strains tested ([12]; 8AU (10 μl/spot of 800 AU/ml)): 8/14; Number of strains inhibited/Number of strains tested ([13]; 1AU (10 μl/spot of 100 AU/ml)): 2/8; Number of strains inhibited/Number of strains tested ([13]; 8AU (10 μl/spot of 800 AU/ml)): 3/8; Number of strains inhibited/Number of strains tested ([14]; 1AU (10 μl/spot of 100 AU/ml)): 0/3; Number of strains inhibited/Number of strains tested ([14]; 8AU (10 μl/spot of 800 AU/ml)): 0/3; Number of strains inhibited/Number of strains tested ([15]; 1AU (10 μl/spot of 100 AU/ml)): 0/5; Number of strains inhibited/Number of strains tested ([15]; 8AU (10 μl/spot of 800 AU/ml)): 2/5
